The conditions of data set [1]: in HPBCD (10%); Fuchs et al. 2014; cited from earlier work.
Data set [2] is described as follows: physchem.
The conditions of data set [3]: pH 9.

SMILES strings stand for the structures. In brackets after ≈: the same amount, converted by molar mass.

Broadly, the thermodynamic solubility is the concentration in solution at equilibrium with solid.

On to `O=C1CN(/N=C/c2ccc(-c3ccc([N+](=O)[O-])cc3)o2)C(O)=N1` [Dantrolen-Natrium], for which the “Konzentration des gelösten Dantrolens in Lösung” value in data set [1] is on record as 0,137 mg/ml. The thermodynamic solubility at 24 h in data set [2] (25% hpbcd in deionized water, Gelöstes Dantrolen-Natrium) turned out to be 15.6 mg/mL (≈ 49.6 mM); in data set [2] (25% hpbcd in deionized water, pH 9, Gelöstes Dantrolen-Natrium), 16 mg/mL (≈ 50.9 mM); in data set [2] (25% hpbcd, 1% tris, water, pH 9, Gelöstes Dantrolen-Natrium) it was 14.4 mg/mL (≈ 45.8 mM); in data set [2] (water, 25% hpbcd, 2% glycerol, pH 9, organic solvent or mixture, Gelöstes Dantrolen-Natrium) it was 9.5 mg/mL (≈ 30.2 mM); in data set [2] (water, 25% hpbcd, arginine, pH 9, Gelöstes Dantrolen-Natrium) it was 8.5 mg/mL (≈ 27 mM); in data set [2] (water, 25% hpbcd, edta, pH 9, Gelöstes Dantrolen-Natrium) it was 3.6 mg/mL (≈ 11.5 mM). Also, the thermodynamic solubility at 24 h in data set [2] (water, 25% hpbcd, lysine, pH 9, Gelöstes Dantrolen-Natrium) turned out to be 15.7 mg/mL (≈ 50 mM). Further, the Löslichkeit entry in data set [3] is listed as “bemerkenswerte Steigerung der Löslichkeit”.

(Values after EP3360539A1, “PHARMACEUTICAL FORMULATION” (SapioTec GmbH, priority 2017, dated 2018).)
